Assay [1] has as its target human adenosine A1 receptor (Homo sapiens (Human), UniProt P30542). In words: Adenosine receptor binding assay, A1 ([3H]DPCPX inhibition binding on membranes). The conditions noted are these: 1 nM [3H]DPCPX, 25° C., 1 h, Ki from IC50 by Cheng-Prusoff. As for the experimental part:
(§1) Inhibition binding assays were performed using 0.2 μg of membranes prepared from HEK293 cells infected with BacMam human adenosine A2A receptor or 1.4 μg of membranes prepared from HEK293 cells infected with BacMam human adenosine A1 receptor. Membranes were incubated in 50 mM Tris-HCl (HEK293-hA2A; pH 7.4) or 50 mM Tris-HCl, 100 mM NaCl, 10 mM MgCl2 (CHO-hA1; pH 7.4) in the presence of varying concentrations of test compound and 1 nM [^3H]ZM241385 (HEK293-hA2A) or [^3H]DPCPX (CHO-hA1) at 25° C. for 1 h. The assay was then terminated by rapid filtration onto GF/B grade Unifilter plates using a TomTec cell harvester, followed by 5×0.5 ml washes with ddH2O. Nonspecific binding was defined in the presence of 1 μM CGS15943 (HEK293-hA2A) or 1 μM DPCPX (CHO-hA1). Bound radioactivity was determined by liquid scintillation counting and inhibition curves were analysed using a four-parameter logistic equation. IC50 values were converted to Ki values with the Cheng-Prusoff equation using a KD value derived from saturation binding studies.

In assay [2] the target is human adenosine A2A receptor (Homo sapiens (Human), UniProt P29274). In words: Adenosine receptor binding assay, A2A ([3H]ZM241385 inhibition binding on HEK293 membranes). The conditions noted are these: 1 nM [3H]ZM241385, 25° C., 1 h, Ki from IC50 by Cheng-Prusoff. As to the method: as §1
Assay [3] deals with human CB-1 cannabinoid receptor (Homo sapiens (Human), UniProt P21554). In words: CB-1 receptor radioligand binding assay ([3H]CP 55940, transfected CHO cell membranes). The settings on record: 0.5 nM [3H]CP 55940, 120 min at 37° C., agonist site. As for the experimental part: Nonspecific binding is determined in the presence of 10 μM WIN 55212-2.
Following incubation, the samples are filtered rapidly under vacuum through glass fiber filters (GF/B, Packard) presoaked with 0.3% PEI and rinsed several times with an ice-cold buffer containing 50 mM Tris-HCl (pH 7.4) and 0.5% BSA using a 96-sample cell harvester (Unifilter, Packard). The filters are dried then counted for radioactivity in a scintillation counter (Topcount, Packard) using a scintillation cocktail (Microscint O, Packard).
The standard reference compound is CP 55940 which is tested in each experiment at several concentrations to obtain a competition curve from which its IC50 is calculated.
In Table 5, blank entries for Ki indicate that the observed binding was too weak to measure a Ki value.

The target of a further assay is human CB1 receptor (Homo sapiens (Human), UniProt P21554). In words: CB1 receptor antagonism, agonist-induced cAMP modulation (HTRF) in transfected CHO cells. The format is cell-based. The settings on record: inhibition of control response to 3 nM CP 55940, cAMP HTRF, read-out: Antag IC50. As to the method:
Receptor antagonism: Evaluation of the antagonist activity of compounds at the human CB1 receptor expressed in transfected CHO cells, determined by measuring their effects on agonist-induced cAMP modulation using the HTRF detection method.
The cells are suspended in HBSS buffer (Invitrogen) complemented with 20 mM HEPES (pH 7.4), then distributed in microplates at a density of 5.10^3 cells/well and preincubated for 5 min at room temperature in the presence of either of the following: HBSS (stimulated control), the reference antagonist AM 281 at 3 μM (basal control) or various concentrations (IC50 determination), or the test compounds.
Thereafter, the reference agonist CP 55940 and the adenylyl cyclase activator NKH 477 are added at respective final concentrations of 3 nM and 3 μM.
For basal control measurements, CP 55940 is omitted from the wells containing 3 μM AM 281.
Following 20 min incubation at 37° C., the cells are lysed and the fluorescence acceptor (D2-labeled cAMP) and fluorescence donor (anti-cAMP antibody labeled with europium cryptate) are added.
After 60 min at room temperature, the fluorescence transfer is measured at λex=337 nm and λem=620 and 665 nm using a microplate reader (Rubystar, BMG). The cAMP concentration is determined by dividing the signal measured at 665 nm by that measured at 620 nm (ratio).
The results are expressed as a percent inhibition of the control response to 3 nM CP 55940.
The standard reference antagonist is AM 281, which is tested in each experiment at several concentrations to generate a concentration-response curve from which its IC50 value is calculated.
On the technique in general: Time-resolved FRET reads energy transfer from a long-lived donor to a nearby acceptor.

The values that follow come from patent US12552799B2, “Triazolone compounds” (Nxera Pharma UK Limited, priority 2020, dated 2026).

Each structure is given as a SMILES string.

human CB1 receptor, sequence (P21554 whole entry): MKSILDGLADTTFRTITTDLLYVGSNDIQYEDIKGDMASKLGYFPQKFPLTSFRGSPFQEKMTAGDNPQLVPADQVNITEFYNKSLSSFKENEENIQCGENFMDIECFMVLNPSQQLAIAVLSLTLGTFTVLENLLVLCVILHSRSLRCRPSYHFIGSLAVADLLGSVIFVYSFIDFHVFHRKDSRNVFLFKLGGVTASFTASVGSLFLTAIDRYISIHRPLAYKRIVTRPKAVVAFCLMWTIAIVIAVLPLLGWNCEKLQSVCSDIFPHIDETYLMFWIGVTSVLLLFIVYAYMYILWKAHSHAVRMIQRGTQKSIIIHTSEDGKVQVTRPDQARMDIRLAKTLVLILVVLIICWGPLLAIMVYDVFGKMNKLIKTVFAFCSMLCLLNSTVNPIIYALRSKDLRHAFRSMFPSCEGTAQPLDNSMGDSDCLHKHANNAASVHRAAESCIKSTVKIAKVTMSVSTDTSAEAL
human CB-1 cannabinoid receptor, sequence (P21554 whole entry): as above
human adenosine A1 receptor, sequence (P30542 whole entry): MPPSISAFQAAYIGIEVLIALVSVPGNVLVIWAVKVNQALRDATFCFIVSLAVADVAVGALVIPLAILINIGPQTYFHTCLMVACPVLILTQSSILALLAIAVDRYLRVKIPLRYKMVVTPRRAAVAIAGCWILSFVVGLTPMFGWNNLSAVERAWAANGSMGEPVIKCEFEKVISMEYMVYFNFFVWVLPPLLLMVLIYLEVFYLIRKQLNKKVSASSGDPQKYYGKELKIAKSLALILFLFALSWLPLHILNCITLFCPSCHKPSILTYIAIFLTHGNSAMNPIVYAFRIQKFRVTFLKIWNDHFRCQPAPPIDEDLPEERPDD
human adenosine A2A receptor, sequence (P29274 whole entry): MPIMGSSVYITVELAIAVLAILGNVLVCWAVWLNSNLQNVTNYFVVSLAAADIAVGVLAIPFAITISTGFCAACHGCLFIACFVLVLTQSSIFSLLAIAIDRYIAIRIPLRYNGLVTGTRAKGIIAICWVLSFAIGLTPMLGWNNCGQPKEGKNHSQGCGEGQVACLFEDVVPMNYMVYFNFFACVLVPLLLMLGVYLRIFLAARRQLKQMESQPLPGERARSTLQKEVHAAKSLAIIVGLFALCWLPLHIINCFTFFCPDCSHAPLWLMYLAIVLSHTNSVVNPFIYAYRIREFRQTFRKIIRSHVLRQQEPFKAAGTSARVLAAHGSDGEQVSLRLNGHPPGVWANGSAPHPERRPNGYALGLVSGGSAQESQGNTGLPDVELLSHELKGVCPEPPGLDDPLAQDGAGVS

As usually defined, the IC50 is the point on the concentration scale where inhibition reaches its midpoint. With `Cc1cc(-c2c(-c3ccc(F)cc3)nc(N)n3c(=O)n(CCC(F)(F)F)nc23)cc2ocnc12` [Example 4-1, 5-amino-7-(4-fluorophenyl)-8-(4-methyl-1,3-benzoxazol-6-yl)-2-(3,3,3-trifluoropropyl)-[1,2,4]triazolo[4,3-c]pyrimidin-3-one], the “A1 pKi” value in assay [1] is reported as 6.5. In addition, the “A2A pKi” value in assay [2] was found to be 9.3. This molecule had a Ki in assay [3] of 3.7 µM. For the same molecule, on human CB1 receptor, the 50% inhibitory concentration (IC50) was 2.4 µM.

Take `Cc1ocnc1Cn1nc2c(-c3cc(C)c4[nH]ncc4c3)c(-c3ccccc3)nc(N)n2c1=O` [Example 4-9, 5-amino-8-(7-methyl-1H-indazol-5-yl)-2-[(5-methyloxazol-4-yl)methyl]-7-phenyl-[1,2,4]triazolo[4,3-c]pyrimidin-3-one]: the “A1 pKi” value in assay [1] was determined as 8.8. For the same molecule, in assay [2], the “A2A pKi” value turned out to be 10.1. This molecule had a Ki in assay [3] of 39.1 µM. Also, the IC50 at human CB1 receptor was 15.5 µM.

As for `C[C@@H]1CC(c2c(-c3ccccc3)nc(N)n3c(=O)n(CCC(F)(F)F)nc23)=C[C@H](C)O1` (relative stereo) [Example 2-1, 5-amino-8-[(cis)-2,6-dimethyl-3,6-dihydro-2H-pyran-4-yl]-7-phenyl-2-(3,3,3-trifluoropropyl)-[1,2,4]triazolo[4,3-c]pyrimidin-3-one], in assay [1], the “A1 pKi” value was 6.3. Further, the “A2A pKi” value in assay [2] was 8.6. This molecule also gave a Ki in assay [3] of 31.5 µM. Further, at human CB1 receptor, the half-maximal inhibitory concentration (IC50) came out at 72.2 µM.

As for `Cc1cc(-c2c(-c3ccccc3)nc(N)n3c(=O)n(Cc4ccc(F)cn4)nc23)cc2nc[nH]c12` [Example 4-5, 5-amino-2-[(5-fluoro-2-pyridyl)methyl]-8-(7-methyl-1H-benzimidazol-5-yl)-7-phenyl-[1,2,4]triazolo[4,3-c]pyrimidin-3-one], the “A1 pKi” value in assay [1] is given as 7.0. In assay [2], the “A2A pKi” value is recorded as 9.0. In addition, the Ki in assay [3] was 24.4 µM. Further, the half-inhibitory concentration (IC50) on human CB1 receptor came out at 68.6 µM.

For the molecule `C[C@@H]1CN(c2c(-c3ccccc3)nc(N)n3c(=O)n(Cc4ccc(F)cn4)nc23)C[C@H](C)O1` [Example 1-14, 5-amino-8-[(cis)-2,6-dimethylmorpholin-4-yl]-2-[(5-fluoro-2-pyridyl)methyl]-7-phenyl-[1,2,4]triazolo[4,3-c]pyrimidin-3-one], in assay [1], the “A1 pKi” value is listed as 5.9. For the same molecule, in assay [2], the “A2A pKi” value is on record as 7.9. This molecule returned a Ki in assay [3] of 9.5 µM. Also, on human CB1 receptor, the 50% inhibitory concentration (IC50) stood at 7 µM.

`Cc1ocnc1Cn1nc2c(-c3cc(C)c4[nH]ccc4c3)c(-c3ccccc3)nc(N)n2c1=O` [Example 4-12, 5-amino-8-(7-methyl-1H-indol-5-yl)-2-[(5-methyloxazol-4-yl)methyl]-7-phenyl-[1,2,4]triazolo[4,3-c]pyrimidin-3-one]: the “A1 pKi” value in assay [1] was 7.2. Also, the “A2A pKi” value in assay [2] was determined as 9.3. In assay [3], the Ki stood at 39.6 µM. Moreover, on human CB1 receptor, the IC50 was determined as 22.5 µM.

Turning to `Cc1ocnc1Cn1nc2c(-c3cc(Cl)c4[nH]ncc4c3)c(-c3ccccc3)nc(N)n2c1=O` [Example 4-11, 5-amino-8-(7-chloro-1H-indazol-5-yl)-2-[(5-methyloxazol-4-yl)methyl]-7-phenyl-[1,2,4]triazolo[4,3-c]pyrimidin-3-one], the “A1 pKi” value in assay [1] is 8.7. Moreover, in assay [2], the “A2A pKi” value worked out at 9.8. The Ki in assay [3] came to 2.5 µM. In addition, the concentration for half-maximal inhibition (IC50) at human CB1 receptor is 2.6 µM.

With `Cc1cc(-c2c(-c3ccccc3)nc(N)n3c(=O)n(Cc4ccc(F)cn4)nc23)cc2cn[nH]c12` [Example 4-4, 5-amino-2-[(5-fluoro-2-pyridyl)methyl]-8-(7-methyl-1H-indazol-5-yl)-7-phenyl-[1,2,4]triazolo[4,3-c]pyrimidin-3-one], the figures for the Ki in assay [1] (read-out: A1 pKi (converted)), in assay [2] (read-out: A2A pKi (converted)) and in assay [3] were 0.0251 µM, 0.000251 µM and 5.5 µM, respectively. Further, the 50% inhibitory concentration (IC50) at human CB1 receptor amounted to 1.3 µM.

In the case of `C[C@@H]1CN(c2c(-c3ccccc3)nc(N)n3c(=O)n(CCC(F)(F)F)nc23)C[C@H](C)O1` [Example 1-1, 5-amino-8-[(cis)-2,6-dimethylmorpholin-4-yl]-7-phenyl-2-(3,3,3-trifluoropropyl)-[1,2,4]triazolo[4,3-c]pyrimidin-3-one], the “A1 pKi” value in assay [1] was under 5.4. In assay [2], the “A2A pKi” value is 8.3. In assay [3], the Ki is 33.9 µM. Moreover, the IC50 at human CB1 receptor came out at 14.7 µM.
